Assays:
[1] = Sweat malodor coverage, panel sniff test with isovaleric acid model; set-up: species or system human; settings: compound 10% in solvent; 1 h equilibration in 8 oz jar; 15-18 panelists; scale 1 (No Coverage) to 5 (Excellent Coverage)
Procedure: (§1) It is known that the perspirative malodors of human body, particularly sweat, are associated with the production of several unpleasant smelling organic acids, particularly isovaleric acid (“IVA”). The commercial sample of this malodorous material (commercially available at Sigma-Aldrich Inc.) was thus used as a model compound to assess the effectiveness of sweat malodor counteractants. The mold/mildew malodor model was prepared based on applicant's proprietary formulations for assessing the effectiveness of mold/mildew malodor counteractants.
(§2) Two aluminum dishes were placed in an 8 oz glass jar. A malodor material was pipetted into one aluminum dish, and a compound of the present invention diluted in a solvent (10%) or a solvent alone control was pipetted into the other aluminum dish. The jar was then capped and the samples were allowed to equilibrate for one hour before the testing.
(§3) Test samples were presented in a blind and random order to 15-18 internal panelists (consisting of men/women with an age range of 25 to 55). However, different odor samples were arranged in an alternative order (for example, sweat, mold/mildew, sweat, mold/mildew, and etc.).
(§4) The panelists were instructed to take the steps of i) sniff jars containing only the malodor materials for familiarization prior to the testing; ii) uncap a jar; iii) place their noses at a distance of about 3-4 inches above the opening; iv) take short sniffs for 3 seconds; and v) provide a rank of the malodor coverage using an intensity scale of 1 to 5, where 1 represents “No Coverage”, 3 represents “Moderate Coverage”, and 5 represents “Excellent Coverage”. The means for each sample was then calculated.

[2] = Mold/mildew malodor coverage, panel sniff test with proprietary malodor model; set-up: species or system human; settings: compound 10% in solvent; 1 h equilibration in 8 oz jar; 15-18 panelists; scale 1 (No Coverage) to 5 (Excellent Coverage)
Procedure: as §1, §2, §3, §4

Vapor pressure = type: physicochemical

SMILES | Sweat Malodor, mean rank of malodor coverage [1] | Mold/Mildew Malodor, mean rank of malodor coverage [2] | Vapor Pressure (Vapor pressure) [µg/L]
CC(=O)OC1CC2(C)CCC(C2)C1C (stereo not drawn) [Structure IV, acetic acid 1,4-dimethyl-bicyclo[3.2.1]oct-3-yl ester] | 3.09 | 2.96 | 1091
COC(=O)OC1CC2(C)CCC(C2)C1C (stereo not drawn) [Structure V, carbonic acid 1,4-dimethyl-bicyclo[3.2.1]oct-3-yl ester methyl ester] | 2.42 | 2.49 | 406
CC1=CCC2(C)CCC1C2 (stereo not drawn) [Structure I, 2,5-dimethyl-bicyclo[3.2.1]oct-2-ene] | 3.90 | 3.32 | 28652

From patent publication US8415391B2, “3.2.1-bicyclo-octene and -octane compounds” (International Flavors & Fragrances Inc., priority 2010, dated 2013)
